Experimental data reported in patent US20050032761A1, “Lipid profile modulation” (priority 2001, published 2005).

Assays:
[1] = Food intake and body weight in lean and obese Zucker rats treated with carbenoxolone; type: in vivo; details: lean or obese animals; 50 mg/kg by gavage daily, three weeks
Procedure: Groups of eight 5-week-old male obese and lean Zucker rats (Harlan Orlac, Bicester, UK) were characterised by phenotype; maintained under controlled conditions of light (on 0800 h-2000 h) and temperature (21° C.) and allowed free access to standard rat chow. (Special Diet Services, Witham, UK) and drinking water. Drug treatment—Drug treatment was commenced when the animals were 6 weeks of age. […] Animals were weighed regularly to allow accurate dosing with drugs, and to follow the progress of weight gain. Food intake for each cage of 4 animals was measured daily. After two weeks of treatment animals underwent an oral glucose tolerance test, which consisted of an overnight fast, followed by an oral glucose load of 2 g/kg body weight at 0900 h. Blood samples were taken by tail-nick at 0, 30 and 120 min after the glucose bolus.

[2] = Oral glucose tolerance test in lean and obese Zucker rats; type: in vivo
Procedure: Drug treatment—Drug treatment was commenced when the animals were 6 weeks of age. […] Animals were weighed regularly to allow accurate dosing with drugs, and to follow the progress of weight gain. Food intake for each cage of 4 animals was measured daily. After two weeks of treatment animals underwent an oral glucose tolerance test, which consisted of an overnight fast, followed by an oral glucose load of 2 g/kg body weight at 0900 h. Blood samples were taken by tail-nick at 0, 30 and 120 min after the glucose bolus. […] Glucose concentrations were determined using a hexokinase glucose assay kit (Sigma, Poole, UK), for which the inter- and intra-assay coefficients of variation were both <2%.

[3] = Non-fasting plasma lipid levels in lean and obese Zucker rats; type: in vivo
Procedure: Drug treatment—Drug treatment was commenced when the animals were 6 weeks of age. […] Animals were weighed regularly to allow accurate dosing with drugs, and to follow the progress of weight gain. Food intake for each cage of 4 animals was measured daily. After two weeks of treatment animals underwent an oral glucose tolerance test, which consisted of an overnight fast, followed by an oral glucose load of 2 g/kg body weight at 0900 h. Blood samples were taken by tail-nick at 0, 30 and 120 min after the glucose bolus. […] Lipid levels were measured in plasma prepared from terminal blood samples collected at 0900-1100 h. Triglycerides, total cholesterol and HDL cholesterol were measured using […] (TG, CHOL and HDL C-plus respectively) from Roche Diagnostics, Mannheim, Germany. Non-esterified fatty acids (NEFAs) were measured using the Wako NEFA C enzymatic assay (Alpha Laboratories Ltd, Hampshire, UK).

5β-reductase [4] = molecular target: T1, 5β-reductase (Rattus norvegicus, UniProt P31210); test: Hepatic 5β-reductase activity in liver cytosol after carbenoxolone administration; type: in vivo, Zucker rats; details: obese animals
T1 construct: conversion of [^3H]-corticosterone to [^3H]-5β-tetrahydrocorticosterone in liver cytosol preparations; from tissue; host or cells: Zucker rat liver cytosol
T1 sequence (P31210 1-326): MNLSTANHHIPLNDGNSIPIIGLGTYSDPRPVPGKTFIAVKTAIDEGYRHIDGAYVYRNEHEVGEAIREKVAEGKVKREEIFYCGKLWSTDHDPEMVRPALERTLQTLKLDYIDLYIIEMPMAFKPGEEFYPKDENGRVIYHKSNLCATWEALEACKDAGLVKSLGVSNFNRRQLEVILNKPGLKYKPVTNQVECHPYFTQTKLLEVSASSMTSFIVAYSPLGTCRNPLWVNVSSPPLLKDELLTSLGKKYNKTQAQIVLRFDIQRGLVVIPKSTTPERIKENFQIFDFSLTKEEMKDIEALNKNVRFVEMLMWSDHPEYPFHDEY
Procedure: (§1) Drug treatment—Drug treatment was commenced when the animals were 6 weeks of age. […] Animals were weighed regularly to allow accurate dosing with drugs, and to follow the progress of weight gain. Food intake for each cage of 4 animals was measured daily. After two weeks of treatment animals underwent an oral glucose tolerance test, which consisted of an overnight fast, followed by an oral glucose load of 2 g/kg body weight at 0900 h. Blood samples were taken by tail-nick at 0, 30 and 120 min after the glucose bolus.
5β-Reductase activity in the liver was assessed by the conversion of [^3H]-corticosterone to [^3H]-5β-tetrahydrocorticosterone in liver cytosol preparations. The sub-cellular localisation and cofactor preference of 11β-HSD1 and 5β-reductase differ such that the enzyme activities can be measured independently of one another. Liver cytosol was prepared by repeated centrifugation according to the method of (Fleischer & Kervina 1974). Enzyme activity was measured by incubating cytosol (100 μg protein/ml) in duplicate at 37° C., in phosphate buffer (40 mM Na2PO4, 320 mM sucrose, 1 mM dithiothreitol, pH 7.5) containing NADPH (1 mM) and [^3H]-corticosterone (150 nM). […] Steroids were separated by HPLC using a reverse phase C8 column at 10° C., and quantified by on-line liquid scintillation counting. […]

[5] = Hypothalamic pituitary adrenal axis: adrenal weight and plasma corticosterone in Zucker rats; type: in vivo
Procedure: as §1, with “bolus. […] Plasma assays—Corticosterone levels were measured in plasma prepared from terminal blood samples collected at 0900-1100 h using an in-house radioimmunoassay (74). The inter- and intra-assay coefficients of variation were<10%.” for “bolus.”

11β-HSD1 [6] = molecular target: T2, 11β-HSD1 (Homo sapiens, UniProt P28845); details: humans; cited from earlier work
T2 construct: host or cells: human subjects in vivo

[7] = Carbenoxolone randomised double-blind crossover study, fasting plasma lipids; details: men with type 2 diabetes mellitus and healthy controls, vs placebo
Description: Fasting levels of plasma lipids are shown.

11β-HSD1 [8] = molecular target: T3, 11β-HSD1 (Rattus norvegicus, UniProt P16232); test: 11β-HSD1 activity in tissue homogenates after carbenoxolone administration; set-up: from tissue; host or cells: Zucker rat liver, quadriceps skeletal muscle, subcutaneous lumbar fat, omental fat homogenates; species or system Zucker rats; details: ex vivo, liver; lean and obese animals
Procedure: as §1
Measurement of enzyme activities in vitro—11β-HSD1 activity was measured in homogenates of tissues by incubating in duplicate at 37° C., in Krebs Ringer buffer containing glucose (0.2%), NADP (2 mM) and 1,2,6,7-[^3H]4-corticosterone (100 nM). Conditions were optimised for each tissue to ensure first order kinetics, by adjusting protein concentrations as follows: 10 μg/ml for liver; 1.5 mg/ml for quadriceps skeletal muscle; 0.5 mg/ml for subcutaneous lumbar fat and 1 mg/ml for omental fat. […] Steroids were separated by HPLC using a reverse phase μ-Bondapak C18 column at 20° C. and quantified by on-line liquid scintillation counting. No peaks other than ^3H-corticosterone and ^3H-11-dehydrocorticosterone were detected under these conditions.

[9] = test system: glucocorticoid receptor-mediated response in human skin; test: Skin blanching after topical application to forearm skin; type: in vivo; details: applied together with beclomethasone, 12 healthy humans
Procedure: The intensity of skin blanching was recorded the following day by two observers who were blind to the order of application of steroid solutions, as described (80).

5β-reductase [10] = molecular target: T4, 5β-reductase (Homo sapiens, UniProt P51857); details: reported (70); cited from earlier work
T4 sequence (P51857 1-326): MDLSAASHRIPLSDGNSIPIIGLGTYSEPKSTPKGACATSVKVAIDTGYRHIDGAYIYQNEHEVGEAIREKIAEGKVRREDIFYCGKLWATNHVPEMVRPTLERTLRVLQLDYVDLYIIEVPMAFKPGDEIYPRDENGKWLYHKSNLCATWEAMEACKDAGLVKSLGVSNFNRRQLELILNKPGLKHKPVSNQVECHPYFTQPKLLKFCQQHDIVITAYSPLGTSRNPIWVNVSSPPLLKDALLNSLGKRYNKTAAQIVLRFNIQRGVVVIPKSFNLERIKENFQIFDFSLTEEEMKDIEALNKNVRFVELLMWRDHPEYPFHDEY

11β-HSD1 [11] = molecular target: T3, 11β-HSD1; test: Incubation of beclomethasone with homogenised rat liver; type: in vitro ADME; set-up: incubation of beclomethasone with homogenised rat liver; from tissue; host or cells: homogenised rat liver; details: HPLC, UV 254 nm
[12] = non-fasting plasma, obese animals

T3 sequence (P16232 whole entry): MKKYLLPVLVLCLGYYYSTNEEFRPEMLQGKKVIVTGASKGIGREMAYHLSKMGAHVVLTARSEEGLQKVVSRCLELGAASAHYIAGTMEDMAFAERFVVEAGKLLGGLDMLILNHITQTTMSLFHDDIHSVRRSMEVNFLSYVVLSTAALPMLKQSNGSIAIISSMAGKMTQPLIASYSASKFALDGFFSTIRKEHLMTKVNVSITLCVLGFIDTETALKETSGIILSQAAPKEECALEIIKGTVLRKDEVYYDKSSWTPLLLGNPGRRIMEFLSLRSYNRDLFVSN
T2 sequence (P28845 whole entry): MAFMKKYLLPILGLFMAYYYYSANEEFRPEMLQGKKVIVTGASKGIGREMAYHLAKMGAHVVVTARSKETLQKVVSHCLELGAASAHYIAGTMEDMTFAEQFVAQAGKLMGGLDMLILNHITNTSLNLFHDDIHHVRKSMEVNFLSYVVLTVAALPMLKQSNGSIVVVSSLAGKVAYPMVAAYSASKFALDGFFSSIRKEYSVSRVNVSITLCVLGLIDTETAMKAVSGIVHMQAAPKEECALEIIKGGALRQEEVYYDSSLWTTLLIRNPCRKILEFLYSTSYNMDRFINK

Question: Which body weight [1] does the source give for `CC1(C)[C@@H](OC(=O)CCC(=O)O)CC[C@]2(C)[C@H]3C(=O)C=C4[C@@H]5C[C@@](C)(C(=O)O)CC[C@]5(C)CC[C@@]4(C)[C@]3(C)CC[C@@H]12` [Carbenoxolone] here?
Answer: no effect

Question: What about the food intake [1] of the same compound?
Answer: no effect

Question: What about the plasma insulin ([2]; 30 min after glucose, both lean and obese animals) of the same compound?
Answer: increased

Question: What about the plasma insulin ([2]; 120 min after glucose, obese animals) of the same compound?
Answer: increased

Question: What about the glucose tolerance ([2]; Zucker rats) of the same compound?
Answer: no effect

Question: And the plasma insulin ([2]; fasting state, both lean and obese animals)?
Answer: increased

Question: What about the plasma glucose ([2]; lean and obese, fasting and after oral glucose load, two weeks of treatment) of the same compound?
Answer: no significant effect

Question: And the “non-fasting plasma NEFAs” value ([3]; all groups, lean and obese)?
Answer: not different

Question: What about the total cholesterol ([3]; non-fasting plasma, lean and obese rats, three weeks of treatment) of the same compound?
Answer: not affected

Question: What about the HDL cholesterol [3, 12] of the same compound?
Answer: increased

Question: What about the triglycerides [3, 12] of the same compound?
Answer: reduced

Question: And the “hepatic 5β-reductase activity (conversion of corticosterone to 5β-tetrahydrocorticosterone)” value (5β-reductase [4])?
Answer: exacerbated the increase

Question: What about the plasma corticosterone levels ([5]; lean and obese, terminal blood, trend for carbenoxolone to increase) of the same compound?
Answer: no statistically significant differences

Question: And the adrenal weight ([5]; lean animals)?
Answer: no effect

Question: What about the “adrenal weight (adrenal hypertrophy)” value ([5]; obese rats) of the same compound?
Answer: ameliorated

Question: And the “amount of glucose required to maintain normoglycemia” value (11β-HSD1 [6])?
Answer: increases

Question: And the forearm glucose uptake (11β-HSD1 [6])?
Answer: without altering

Question: And the “HDL (high density lipoprotein) cholesterol concentrations” value [7]?
Answer: raised

Question: What about the total cholesterol [7] of the same compound?
Answer: did not affect

Question: And the triglyceride concentrations [7]?
Answer: lowered

Question: What about the “hepatic 11β-HSD1 activity (conversion of corticosterone to 11-dehydrocorticosterone)” value (11β-HSD1 [8]) of the same compound?
Answer: inhibition

Question: For `CC1(C)[C@@H](O)CC[C@]2(C)[C@H]3C(=O)C=C4[C@@H]5C[C@@](C)(C(=O)O)CC[C@]5(C)CC[C@@]4(C)[C@]3(C)CC[C@@H]12` [Glycyrrhetinic acid], which “blanching response to beclomethasone (area under the dose-response curve)” value [9] is on record?
Answer: reduced

Question: And the “inhibition of 5β-reductase” value (5β-reductase [10])?
Answer: inhibit

Question: Which “conversion of beclomethasone to 11-dehydrobeclomethasone” value (11β-HSD1 [11]) does the source give for `C[C@H]1C[C@H]2[C@@H]3CCC4=CC(=O)C=C[C@]4(C)[C@@]3(Cl)[C@@H](O)C[C@]2(C)[C@@]1(O)C(=O)CO` [beclomethasone] here?
Answer: substrate
